From ChEMBL document CHEMBL4619744, “Evaluation of nitrocatechol chalcone and pyrazoline derivatives as inhibitors of catechol-O-methyltransferase and monoamine oxidase” (Bioorg Med Chem Lett, 2020)

What was measured:
[1] = target: T1, Amine oxidase [flavin-containing] A (Homo sapiens, UniProt P21397); experiment: Inhibition of recombinant human MAOA using kynuramine as substrate by fluorescence based assay
T1 sequence (P21397 whole entry): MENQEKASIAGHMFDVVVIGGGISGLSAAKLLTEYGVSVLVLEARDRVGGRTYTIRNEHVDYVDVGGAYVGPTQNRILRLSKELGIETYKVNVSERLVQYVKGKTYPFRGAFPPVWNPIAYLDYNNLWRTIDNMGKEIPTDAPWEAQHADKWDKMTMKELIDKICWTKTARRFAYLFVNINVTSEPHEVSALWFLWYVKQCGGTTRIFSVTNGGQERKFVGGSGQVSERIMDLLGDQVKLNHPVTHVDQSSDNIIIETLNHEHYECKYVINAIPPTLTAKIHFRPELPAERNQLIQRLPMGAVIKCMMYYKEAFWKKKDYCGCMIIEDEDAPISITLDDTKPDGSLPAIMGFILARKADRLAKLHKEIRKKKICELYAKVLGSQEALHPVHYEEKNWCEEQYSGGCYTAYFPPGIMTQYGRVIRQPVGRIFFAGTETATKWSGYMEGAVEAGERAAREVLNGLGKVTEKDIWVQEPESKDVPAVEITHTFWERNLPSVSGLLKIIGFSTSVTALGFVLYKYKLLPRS

[2] = target: T2, Catechol O-methyltransferase (Rattus norvegicus, UniProt P22734); experiment: Inhibition of rat liver COMT using esculetin as substrate by fluorescence based spectrophotometry
T2 sequence (P22734 whole entry): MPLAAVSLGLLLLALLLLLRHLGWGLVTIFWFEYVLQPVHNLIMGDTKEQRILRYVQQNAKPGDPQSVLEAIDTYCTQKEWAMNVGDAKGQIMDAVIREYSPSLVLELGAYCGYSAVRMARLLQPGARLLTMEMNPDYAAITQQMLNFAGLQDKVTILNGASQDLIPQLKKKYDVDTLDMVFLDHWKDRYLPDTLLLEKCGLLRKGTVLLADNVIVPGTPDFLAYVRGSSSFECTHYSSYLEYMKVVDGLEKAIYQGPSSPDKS

[3] = target: T3, Amine oxidase [flavin-containing] B (Homo sapiens, UniProt P27338); experiment: Inhibition of recombinant human MAOB using kynuramine as substrate by fluorescence based assay
T3 sequence (P27338 whole entry): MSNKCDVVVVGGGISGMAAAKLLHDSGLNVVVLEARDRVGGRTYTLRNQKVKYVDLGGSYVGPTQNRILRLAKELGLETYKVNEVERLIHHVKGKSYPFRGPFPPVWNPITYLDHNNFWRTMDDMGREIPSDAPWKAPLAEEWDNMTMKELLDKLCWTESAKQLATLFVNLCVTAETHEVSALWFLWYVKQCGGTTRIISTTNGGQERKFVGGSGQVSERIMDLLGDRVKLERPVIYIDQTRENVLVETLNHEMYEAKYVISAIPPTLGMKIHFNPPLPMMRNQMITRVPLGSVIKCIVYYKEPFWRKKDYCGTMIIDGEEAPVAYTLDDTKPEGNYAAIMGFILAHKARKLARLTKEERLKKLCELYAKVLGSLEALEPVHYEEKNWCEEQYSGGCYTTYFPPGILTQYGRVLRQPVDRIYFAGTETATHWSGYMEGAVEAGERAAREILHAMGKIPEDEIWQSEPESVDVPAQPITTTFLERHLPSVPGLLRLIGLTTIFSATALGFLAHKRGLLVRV

[4] = target: T3, Amine oxidase [flavin-containing] B; experiment: Inhibition of recombinant human MAOB expressed in insect cells measured after 20 mins by fluorescence spectrophotometry
[5] = target: T4, Catechol O-methyltransferase (Homo sapiens, UniProt P21964); experiment: Inhibition of COMT (unknown origin)
T4 sequence (P21964 whole entry): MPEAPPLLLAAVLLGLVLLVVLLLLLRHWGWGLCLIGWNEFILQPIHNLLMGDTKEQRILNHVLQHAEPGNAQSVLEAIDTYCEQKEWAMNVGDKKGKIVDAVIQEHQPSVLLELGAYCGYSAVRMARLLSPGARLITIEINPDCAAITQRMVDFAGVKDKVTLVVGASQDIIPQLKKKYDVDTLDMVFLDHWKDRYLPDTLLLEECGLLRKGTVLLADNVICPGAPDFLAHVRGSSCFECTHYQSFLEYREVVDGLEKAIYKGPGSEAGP

[6] = target: T1, Amine oxidase [flavin-containing] A; experiment: Inhibition of recombinant human MAOA expressed in insect cells measured after 20 mins by fluorescence spectrophotometry
[7] = target: T5, Catechol O-methyltransferase (Rattus norvegicus) (UniProt P22734); experiment: Potency index, ratio of IC50 of 1-(3,4-dihydroxy-5-nitro-phenyl)-3-(3-methoxyphenyl)prop-2-en-1-one to IC50 of compound for inhibition of rat liver COMT using esculetin as substrate by fluorescence based spectrophotometry
T5 sequence (whole entry): T2 sequence (P22734 whole entry)

O=C(/C=C/c1ccsc1)c1cc(O)c(O)c([N+](=O)[O-])c1
IC50 [1]: 41.4 µM
IC50 [2]: 0.23 µM
IC50 [3]: 42.1 µM

O=C(/C=C/c1ccco1)c1cc(O)c(O)c([N+](=O)[O-])c1
IC50 [1]: 60.5 µM
IC50 [2]: 0.23 µM
IC50 [3]: 68.2 µM

Cn1cc(/C=C/C(=O)c2cc(O)c(O)c([N+](=O)[O-])c2)cn1
IC50 [1]: 51.5 µM
IC50 [2]: 0.29 µM
IC50 [3]: 66.2 µM

O=C(/C=C/c1ccoc1)c1cc(O)c(O)c([N+](=O)[O-])c1
IC50 [1]: 52.9 µM
IC50 [2]: 0.29 µM
IC50 [3]: 71.4 µM

CC(=O)N1N=C(c2cc(O)c(O)c([N+](=O)[O-])c2)CC1c1cccc(O)c1 (centres undefined)
IC50 [1]: 87 µM
IC50 [2]: 0.075 µM
IC50 [3]: 85.2 µM

O=C(/C=C/c1cccc(Br)c1)c1cc(O)c(O)c([N+](=O)[O-])c1
IC50 [4]: 13.9 µM
IC50 [5]: 0.29 µM
IC50 [6]: 76.1 µM

CC(=O)N1N=C(c2cc(O)c(O)c([N+](=O)[O-])c2)CC1c1cccc(C#N)c1 (centres undefined)
IC50 [1]: 70.6 µM
IC50 [2]: 0.079 µM
IC50 [3]: 55.4 µM

O=C(/C=C/c1cccc(O)c1)c1cc(O)c(O)c([N+](=O)[O-])c1
IC50 [1]: 43.9 µM
IC50 [2]: 0.14 µM
IC50 [3]: 55.8 µM

N#Cc1cccc(/C=C/C(=O)c2cc(O)c(O)c([N+](=O)[O-])c2)c1
IC50 [1]: 58.9 µM
IC50 [2]: 0.24 µM
IC50 [3]: 60.6 µM

O=C(/C=C/c1nccs1)c1cc(O)c(O)c([N+](=O)[O-])c1
IC50 [1]: 69.6 µM
IC50 [2]: 0.24 µM
IC50 [3]: 59.2 µM

CC(=O)N1N=C(c2cc(O)c(O)c([N+](=O)[O-])c2)CC1c1nccs1 (centres undefined)
IC50 [1]: 84.6 µM
IC50 [2]: 0.16 µM
IC50 [3]: 68.2 µM

CC(=O)N1N=C(c2cc(O)c(O)c([N+](=O)[O-])c2)CC1c1cccs1 (centres undefined)
IC50 [1]: 86.3 µM
IC50 [2]: 0.21 µM
IC50 [3]: 69.2 µM

N#Cc1ccc(/C=C/C(=O)c2cc(O)c(O)c([N+](=O)[O-])c2)cc1
IC50 [1]: 45.3 µM
IC50 [2]: 0.18 µM
IC50 [3]: 56.6 µM

COc1cccc(/C=C/C(=O)c2cc(O)c(O)c([N+](=O)[O-])c2)c1
IC50 [5]: 0.07 µM
IC50 [6]: 67.6 µM

O=C(/C=C/c1cccs1)c1cc(O)c(O)c([N+](=O)[O-])c1
IC50 [1]: 49.9 µM
IC50 [2]: 0.19 µM
IC50 [3]: 62.9 µM

CC(=O)N1N=C(c2cc(O)c(O)c([N+](=O)[O-])c2)CC1c1ccc(C#N)cc1 (centres undefined)
Ratio IC50 [7]: 1.46
IC50 [1]: 76.6 µM
IC50 [2]: 0.048 µM
IC50 [3]: 83.2 µM

CC(=O)N1N=C(c2cc(O)c(O)c([N+](=O)[O-])c2)CC1c1ccco1 (centres undefined)
IC50 [1]: 98 µM
IC50 [2]: 0.18 µM
IC50 [3]: 77.4 µM

CC(=O)N1N=C(c2cc(O)c(O)c([N+](=O)[O-])c2)CC1c1ccoc1 (centres undefined)
IC50 [1]: 90.9 µM
IC50 [2]: 0.18 µM
IC50 [3]: 126 µM
